Experimental data from US20260356817A1, “AMINOPYRIMIDINE AND AMINOTRIAZINE DERIVATIVES AS MYC PROTEIN MODULATORS” (Sanford Burnham Prebys Medical Discovery Institute, priority 2022, published 2026).
Where two headings read alike, the source gives them in different places.

Tests used:
Myc [1] = assay: Myc levels in intracranial medulloblastoma PDX tumors in mice after oral administration (Western blot); type: in vivo, NSG mice transplanted with medulloblastoma PDX cells
Protocol: NSG mice transplanted with medulloblastoma PDX cells were treated by oral administration with either vehicle (10% DMSO, 10% Tween 80) or Compound 171 (100 mg/kg). After 5.5 hours, animals were sacrificed, and tumors were harvested, dissociated, lysed and subjected to Western blotting with antibodies specific for Myc or GAPDH as control.

[2] = system: PDX511 medulloblastoma cells; assay: Cell viability of PDX511 medulloblastoma cells at 4 hours; type: cell-based, human (patient-derived)
Myc [3] = assay: Western blot of Myc in cultured medulloblastoma PDX cells; type: cell-based, human (patient-derived); conditions: 0.18 μM, Western blot (FIG. 4A)
Protocol: (§1) Medulloblastoma PDX cells were harvested from the brains of tumor-bearing mice, cultured overnight, and then treated with Compound 171 for various amounts of time. Cells cultured for time points of 1 hour, 2 hours, and 4 hours were lysed and subjected to Western blotting with antibodies specific for Myc or GAPDH as control, as shown in FIG. 4A. Cells cultured for longer time points of 48 hours and 96 hours were assayed for viability using the CellTiter Glo assay, as shown in FIG. 4B and FIG. 4C.

Myc [4] = assay: Western blot of Myc in BxPC-3 cells (pancreatic adenocarcinoma); type: cell-based; conditions: 0.18 μM and 1.0 μM, 4 hours, Western blot (FIG. 5C)
Protocol: (§2) Cell lines derived from acute monocytic leukemia, acute promyelocytic leukemia, pancreatic adenocarcinoma and small cell lung cancer were treated with vehicle (DMSO) or the indicated concentrations of Compound 171 for 4 hours, and then lysed and subjected to Western blotting using antibodies specific for Myc or GAPDH as control.

[5] = system: retinoblastoma (Rb) protein; assay: Rb protein expression in PDX511 medulloblastoma cells (immunofluorescence); type: cell-based, human (patient-derived)
Myc [6] = assay: Western blot of Myc in HL-60 cells (acute promyelocytic leukemia); type: cell-based; conditions: 0.18 μM and 1.0 μM, 4 hours, Western blot (FIG. 5B)
Protocol: as §2

[7] = system: medulloblastoma PDX cells; assay: CellTiter Glo viability of medulloblastoma PDX cells; type: cell-based, human (patient-derived); conditions: 0.18 μM
Protocol: as §1

Myc [8] = assay: Western blot of Myc in H-82 cells (small cell lung cancer); type: cell-based; conditions: 0.18 μM and 1.0 μM, 4 hours, Western blot (FIG. 5D)
Protocol: as §2

Myc [9] = assay: Myc inhibition assay: Myc expression per cell by anti-Myc immunofluorescence, high-content imaging; type: cell-based, human (patient-derived medulloblastoma xenograft cells); conditions: for IC50: medulloblastoma PDX cells, 4 h
Method in brief: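 Cells from Myc-driven medulloblastoma patient-derived orthotopic xenografts, propagated only in NSG mouse cerebellum, were dissociated and plated in serum-free medium. After overnight recovery, compounds were applied for 4 hours; cells were then fixed, stained for Myc and DAPI, and per-cell Myc quantified by high-content imaging to derive IC50.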

Myc [10] = assay: Western blot of Myc in THP-1 cells (acute monocytic leukemia); type: cell-based; conditions: 0.18 μM and 1.0 μM, 4 hours, Western blot (FIG. 5A)
Protocol: as §2

[11] = Plasma and brain concentrations in NSG mice after oral administration (LCMS); type: in vivo, mice (non-tumor-bearing NSG); conditions: 100 mg/kg oral
Protocol: Non-tumor-bearing NOD-SCID-IL2Rgamma knockout (NSG) mice were treated with Compound 171 at 100 mg/kg via oral administration. Blood was collected retro-orbitally or by cardiac puncture for measuring compound concentrations. For measurements of compound concentration in the brain, animals were sacrificed, and brain tissue was harvested and homogenized. Compound concentration was determined by liquid chromatography-mass spectrometry (LCMS).

IC50 (Myc [9]; Table 1, read-out: IC50 (Myc inhibition)): < 200 nM
IC50 (Myc [9]; Table 2, read-out: MYC Inhibition IC50): < 200 nM
time for which brain concentration remained above the IC90 level ([11]; brain): more than 6 hours
time for which plasma concentration remained above the IC90 level ([11]; plasma): more than 6 hours
Structure (SMILES): FC(F)(F)c1cccc(Nc2nccc(-c3ccc4nc[nH]c4c3)n2)c1 [Compound 171, 4-(1H-Benzo[d]imidazol-6-yl)-N-(3-(trifluoromethyl)phenyl)pyrimidin-2-amine 2HCl]
reduction of Myc levels in intracranial tumors (Myc [1]; 100 mg/kg oral (FIG. 7)): reduction of Myc levels
mice with undetectable Myc expression in intracranial tumors (Myc [1]; 100 mg/kg oral, after more than 5 hours (5.5 hours), Western blot): 3 out of 6
effect on cell viability [2]: no effect
inhibition of Myc expression at 2 and 4 hours (Myc [3]; 2 and 4 hours vs 1 hour): greater inhibition
time of first inhibition of Myc expression (Myc [3]): ≤ 1 h
inhibition of Myc, BxPC-3 (Myc [4]): substantial inhibition of Myc
effect on expression of the retinoblastoma (Rb) protein [5]: no effect
inhibition of Myc, HL-60 (Myc [6]): substantial inhibition of Myc
reduction in cell viability by 48 hours ([7]; 48 hours, CellTiter Glo (FIG. 4B)): 80%
reduction in cell viability by 96 hours ([7]; 96 hours, CellTiter Glo (FIG. 4C)): 100%
inhibition of Myc, H-82 (Myc [8]): substantial inhibition of Myc
Myc expression inhibition (in words) (Myc [9]; PDX511 medulloblastoma cells (FIG. 3A)): Myc expression inhibition
inhibition of Myc, THP-1 (Myc [10]): substantial inhibition of Myc
blood-brain-barrier crossing and retention in the brain [11]: ability to cross the blood-brain-barrier with good retention in the brain
